For the assay, the target named is T1, human BLT1 receptor (Homo sapiens, UniProt Q15722).
T1 construct: expressed in transfected cells; host or cells: HEK293
T1 sequence (Q15722 whole entry): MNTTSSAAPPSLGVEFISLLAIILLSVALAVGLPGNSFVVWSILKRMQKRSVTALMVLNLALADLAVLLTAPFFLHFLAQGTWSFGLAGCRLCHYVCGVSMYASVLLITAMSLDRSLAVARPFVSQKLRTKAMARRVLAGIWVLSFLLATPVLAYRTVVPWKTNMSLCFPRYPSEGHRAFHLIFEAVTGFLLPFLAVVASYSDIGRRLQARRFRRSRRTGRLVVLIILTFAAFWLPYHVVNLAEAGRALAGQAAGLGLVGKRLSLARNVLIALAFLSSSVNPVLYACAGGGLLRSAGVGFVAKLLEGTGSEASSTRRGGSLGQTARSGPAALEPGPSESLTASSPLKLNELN
Nature of the assay: BLT-1 cAMP Assay. It counts as cell-based. The conditions noted are these: HEK293 cells recombinantly expressing human BLT1; antagonist activity vs forskolin 4 μM and LTB4 2 nM; cAMP (CisBio kit).
As for `Cn1nccc1C[C@@H]1COc2cc(-c3ccccc3NS(=O)(=O)C(F)(F)F)ccc2[C@H]1O` (single isomer, unassigned) [Example 66, 1,1,1-trifluoro-N-(2-{(3,4-trans)-4-hydroxy-3-[(1-methyl-1H-pyrazol-5-yl)methyl]-3,4-di-hydro-2H-chromen-7-yl}-phenyl)methanesulfonamide], the EC50 (in general, the concentration at which the effect is half-maximal) amounted to 210 nM.
As for `CC(C)(C)c1nc(C[C@@H]2COc3cc(-c4ccccc4NS(=O)(=O)C(F)(F)F)ccc3[C@H]2O)cs1` (relative stereo) [Example 45, N-(2-((3,4-trans)-3-((2-(tert-butyl)thiazol-4-yl)methyl)-4-hydroxychroman-7-yl)phenyl)-1,1,1-trifluoromethanesulfonamide], the EC50 was determined as 1430 nM.
With `CC(c1ccccn1)C1COc2cc(-c3cc(F)ccc3NS(=O)(=O)C(F)(F)F)ccc2C1O` (single isomer, unassigned) [Example 103, 1,1,1-trifluoro-N-(4-fluoro-2-(4-hydroxy-3-(1-(pyridin-2-yl)ethyl)chroman-7-yl)phenyl) methanesulfonamide] the figure was 1310 nM; with `O=S(=O)(Nc1ccccc1-c1ccc2c(c1)OC[C@@H](Cc1ccc(-c3ccccc3)cc1)[C@@H]2O)C(F)(F)F` (single isomer, unassigned) [Example 67, N-{2-[(3S,4R or 3R,4S)-3-(biphenyl-4-ylmethyl)-4-hydroxy-3,4-dihydro-2H-chromen-7-yl]phenyl}-1,1,1-trifluoromethanesulfonamide], 48 nM.
For `CS(=O)(=O)Nc1ccccc1-c1ccc2c(c1)OCC(Cc1ccccn1)C2O` (racemic) [Example 30, N-(2-((3,4-Rac-trans)-4-hydroxy-3-(pyridin-2-ylmethyl)chroman-7-yl)phenyl)methanesulfonamide] the value was 414 nM.
Consider `O=S(=O)(Nc1ccccc1-c1ccc2c(c1)OCC(Cc1cn[nH]c1)C2O)C(F)(F)F` (racemic) [Example 12, N-(2-((3,4-Rac-trans)-3-((1H-pyrazol-4-yl)methyl)-4-hydroxychroman-7-yl)phenyl)-1,1,1-trifluoromethanesulfonamide], for which the EC50 was found to be 1650 nM.
With `Cc1ccc(CC2COc3cc(-c4ccccc4NS(=O)(=O)C(F)(F)F)ccc3C2O)nc1` (racemic) [Example 11, 1,1,1-Trifluoro-N-(2-((3,4-rac-trans)-4-hydroxy-3-((5-methylpyridin-2-yl)methyl)chroman-7-yl)phenyl)methanesulfonamide] the figure was 105 nM; with `Cc1nnc(C[C@H]2COc3cc(-c4ccccc4NS(=O)(=O)C(F)(F)F)ccc3[C@@H]2O)s1` (racemic) [Example 23, 1,1,1-Trifluoro-N-(2-{(rac-trans)-4-hydroxy-3-[(5-methyl-1,3,4-thiadiazol-2-yl)methyl]-3,4-dihydro-2H-chromen-7-yl}phenyl)methanesulfonamide], 32 nM; with `Cc1cccc(C[C@H]2COc3cc(-c4ccccc4NS(=O)(=O)C(F)(F)F)ccc3[C@@H]2O)n1` (racemic) [Example 20, 1,1,1-Trifluoro-N-(2-{(rac-trans)-4-hydroxy-3-[(6-methylpyridin-2-yl)methyl]-3,4-dihydro-2H-chromen-7-yl}phenyl)methanesulfonamide], 215 nM.
With `O=S(=O)(Nc1ccccc1-c1ccc2c(c1)OC[C@H](Cc1ccccc1)[C@H]2O)C(F)(F)F` (single isomer, unassigned) [Example 59, N-{2-[(3S,4R or 3R,4S)-3-benzyl-4-hydroxy-3,4-dihydro-2H-chromen-7-yl]phenyl}-1,1,1-trifluoromethanesulfonamide] the figure was 15 nM.
Take `O=S(=O)(CC(F)(F)F)Nc1ccccc1-c1ccc2c(c1)OC[C@@H](Cc1ccccn1)[C@@H]2O` (single isomer, unassigned) [Example 79, 2,2,2-Trifluoro-N-(2-((3R,4S or 3S,4R)-4-hydroxy-3-(pyridin-2-ylmethyl)chroman-7-yl)phenyl)ethanesulfonamide]: the EC50 is 35 nM.
As to `O=S(=O)(Nc1ccccc1-c1ccc2c(c1)OC[C@H](Cc1csc(-c3ccccc3)n1)[C@H]2O)C(F)(F)F` (single isomer, unassigned) [Example 65, 1,1,1-Trifluoro-N-(2-((3S,4R or 3R,4S)-4-hydroxy-3-((2-phenylthiazol-4-yl)-methyl)chroman-7-yl)-phenyl)methanesulfonamide], the EC50 stood at 47 nM.
For the molecule `O=S(=O)(Nc1ccccc1-c1ccc2c(c1)OC[C@@H](Cc1ccc(-c3ccccc3)cn1)[C@@H]2O)C(F)(F)F` (single isomer, unassigned) [Example 40, (2-((3R,4S or 3S,4R)-4-hydroxy-3-((5-phenylpyridin-2-yl)methyl)chroman-7-yl)phenyl)((trifluoromethyl)sulfonyl)amide], the concentration giving a half-maximal response (EC50) was 18 nM.
For `O=S(=O)(Nc1ccccc1-c1ccc2c(c1)OCC(Cc1cc3ccccc3s1)C2O)C(F)(F)F` (racemic) [Example 34, N-(2-((3,4-rac-trans)-3-(benzo[b]thiophen-2-ylmethyl)-4-hydroxychroman-7-yl)phenyl)-1,1,1-trifluoromethanesulfonamide] the value was 44 nM; for `O=S(=O)(Nc1ccccc1-c1ccc2c(c1)OCC(Cc1cc[nH]n1)C2O)C(F)(F)F` (racemic) [Example 6, N-(2-((3,4-Rac-trans)-3-((1H-pyrazol-3-yl)methyl)-4-hydroxychroman-7-yl)phenyl)-1,1,1-trifluoromethanesulfonamide], 240 nM.
As to `Cc1nc(C[C@H]2COc3cc(-c4ccccc4NS(=O)(=O)C(F)(F)F)ccc3[C@@H]2O)cs1` (single isomer, unassigned) [Example 57, 1,1,1-Trifluoro-N-(2-{(3S,4R or 3R,4S)-4-hydroxy-3-[(2-methyl-1,3-thiazol-4-yl)methyl]-3,4-dihydro-2H-chromen-7-yl}phenyl)-methanesulfonamide], the EC50 amounted to 10 nM.
For `Cc1nc(C[C@@H]2COc3cc(-c4ccccc4NS(=O)(=O)C(F)(F)F)ccc3[C@H]2O)cs1` (single isomer, unassigned) [Example 56, 1,1,1-Trifluoro-N-(2-{(3R,4S or 3S,4R)-4-hydroxy-3-[(2-methyl-1,3-thiazol-4-yl)methyl]-3,4-dihydro-2H-chromen-7-yl}phenyl)-methanesulfonamide] the value was 826 nM.
Consider `CC(c1ccccn1)C1COc2cc(-c3cc(F)ccc3NS(=O)(=O)C(F)(F)F)ccc2C1O` (single isomer, unassigned) [Example 101, 1,1,1-trifluoro-N-(4-fluoro-2-(4-hydroxy-3-(1-(pyridin-2-yl)ethyl)chroman-7-yl)phenyl) methanesulfonamide], for which the EC50 amounted to 678 nM.
For `CC(c1ccccn1)C1COc2cc(-c3cc(F)ccc3NS(=O)(=O)C(F)(F)F)ccc2C1O` (stereo not drawn) [Example 99, 1,1,1-trifluoro-N-(4-fluoro-2-(4-hydroxy-3-(1-(pyridin-2-yl)ethyl)chroman-7-yl)phenyl) methanesulfonamide] the value was 1 nM; for `O=S(=O)(Nc1ccccc1-c1ccc2c(c1)OC[C@@H](Cc1cnc(-c3ccccc3)s1)[C@@H]2O)C(F)(F)F` (single isomer, unassigned) [Example 42, 1,1,1-Trifluoro-N-(2-((3S,4R or 3R,4S)-4-hydroxy-3-((2-phenylthiazol-5-yl)methyl)chroman-7-yl)phenyl)methanesulfonamide], 445 nM; for `CC(c1ccccn1)C1COc2cc(-c3cc(F)ccc3NS(=O)(=O)C(F)(F)F)ccc2C1O` (single isomer, unassigned) [Example 102, 1,1,1-trifluoro-N-(4-fluoro-2-(4-hydroxy-3-(1-(pyridin-2-yl)ethyl)chroman-7-yl)phenyl) methanesulfonamide], 78 nM.
As to `O=S(=O)(Nc1ccccc1-c1ccc2c(c1)OC[C@H](Cc1ncccc1F)[C@H]2O)C(F)(F)F` (racemic) [Example 19, 1,1,1-Trifluoro-N-(2-{(rac-trans)-3-[(3-fluoropyridin-2-yl)methyl]-4-hydroxy-3,4-dihydro-2H-chromen-7-yl}phenyl)methanesulfonamide], the EC50 was found to be 1600 nM.
In the case of `O=S(=O)(Nc1ccccc1-c1ccc2c(c1)OC[C@H](Cc1cccnn1)[C@H]2O)C(F)(F)F` (racemic) [Example 28, 1,1,1-Trifluoro-N-{2-[(rac-trans)-4-hydroxy-3-(pyridazin-3-ylmethyl)-3,4-dihydro-2H-chromen-7-yl]phenyl}methanesulfonamide], the EC50 worked out at 2140 nM.
On to `O=S(=O)(Nc1ccccc1-c1ccc2c(c1)OC[C@H](Cc1ccc(-c3ccccc3)cn1)[C@H]2O)C(F)(F)F` (single isomer, unassigned) [Example 39, (2-((3S,4R or 3R,4S)-4-hydroxy-3-((5-phenylpyridin-2-yl)methyl)chroman-7-yl)phenyl)((trifluoromethyl)sulfonyl)amide], for which the EC50 was 1 nM.
With `O=S(=O)(Nc1ccccc1-c1ccc2c(c1)OC[C@@H](Cc1csc(-c3ccccc3)n1)[C@@H]2O)C(F)(F)F` (single isomer, unassigned) [Example 64, 1,1,1-Trifluoro-N-(2-((3R,4S or 3S,4R)-4-hydroxy-3-((2-phenylthiazol-4-yl)-methyl)chroman-7-yl)-phenyl)methanesulfonamide] the figure was 971 nM; with `O=S(=O)(Nc1ncccc1-c1ccc2c(c1)OC[C@@H](Cc1ccccn1)[C@@H]2O)C(F)F` (single isomer, unassigned) [Example 86, 1,1-Difluoro-N-(3-((3,4-trans)-4-hydroxy-3-(pyridin-2-ylmethyl)chroman-7-yl)pyridin-2-yl)methanesulfonamide], 156 nM.
With `Cn1nc(-c2ccccc2)cc1C[C@H]1COc2cc(-c3ccccc3NS(=O)(=O)C(F)(F)F)ccc2[C@@H]1O` (single isomer, unassigned) [Example 36, 1,1,1-Trifluoro-N-(2-((3S,4R or 3R,4S)-4-hydroxy-3-((1-methyl-3-phenyl-1H-pyrazol-5-yl)methyl)chroman-7-yl)phenyl)methanesulfonamide] the figure was 737 nM.
